In US8859535B2, “Hydroxy substituted isoquinolinone derivatives” (Novartis AG, priority 2011, dated 2014) one finds IC50 data, which are given here for 21 compounds.

In assay [1] the target is T1, human MDM2 protein (amino acids 2-188) (Homo sapiens, UniProt Q00987).
T1 construct: human MDM2 protein (amino acids 2-188); made in house
In words: p53-MDM2 TR-FRET assay (p53-MDM2 Assay 1). In kind it is binding. The following applies: 1.25 nM MDM2-biotinylated, 10 nM Cy5-p53 peptide; read-out: IC50 (μM) of p53-Hdm2 inhibition (TR-FRET) Assay 1. Put shortly: (§1)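 Peptide displacement read as 665/620 nm TR-FRET ratio (excitation 340 nm) after 15 min room temperature with 10 nM Cy5-p53 aa18-26, following 15 min preincubation of Eu-streptavidin (0.625 nM) with biotinylated MDM4 aa 2-185 (2.5 nM) or MDM2 aa 2-188 (1.25 nM); IC50 curve-fitted. MDM2 Assay 2: MDM2 and Eu-streptavidin each 0.1 nM.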
For orientation: Time-resolved FRET reads energy transfer from a long-lived donor to a nearby acceptor.

The target in assay [2] is T2, human MDM4 protein (amino acids 2-185) (Homo sapiens, UniProt O15151).
T2 construct: human MDM4 protein (amino acids 2-185); made in house
T2 sequence (O15151 2-185): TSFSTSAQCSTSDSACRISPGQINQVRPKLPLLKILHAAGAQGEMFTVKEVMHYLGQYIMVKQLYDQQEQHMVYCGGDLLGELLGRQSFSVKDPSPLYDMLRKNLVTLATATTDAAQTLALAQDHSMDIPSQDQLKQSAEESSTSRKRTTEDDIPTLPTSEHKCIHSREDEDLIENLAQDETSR
In words: p53-MDM4 TR-FRET assay (p53-MDM4 Assay 1). Format: binding. The following applies: 2.5 nM MDM4-biotinylated, 10 nM Cy5-p53 peptide; read-out: IC50 (μM) of p53-Hdm4 inhibition (TR-FRET) Assay 1. Put shortly:
as §1

What is called IC50 is the point on the concentration scale where inhibition reaches its midpoint.

T1 sequence (Q00987 2-188): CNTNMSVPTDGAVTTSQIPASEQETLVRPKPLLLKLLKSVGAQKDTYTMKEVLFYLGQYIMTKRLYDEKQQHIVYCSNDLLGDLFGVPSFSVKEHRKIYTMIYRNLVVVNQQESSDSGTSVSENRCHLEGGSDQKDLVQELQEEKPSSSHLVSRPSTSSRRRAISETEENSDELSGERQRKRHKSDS

As for `COc1cc2c(cc1OC(C)C)[C@H](c1ccc(Cl)cc1)N(c1ccc(C(C)(O)C3CCN(C(N)=O)CC3)cc1)C(=O)C2` (stereo partly drawn) [Example 75, 4-(1-{4-[(S)-1-(4-Chloro-phenyl)-7-isopropoxy-6-methoxy-3-oxo-3,4-dihydro-1H-isoquinolin-2-yl]-phenyl}-1-hydroxy-ethyl)-piperidine-1-carboxylic acid amide], the IC50 in assay [1] amounted to 0.0043 µM; in assay [2], 4.95 µM.

Consider `COc1cc2c(cc1OC(C)C)[C@H](c1ccc(Cl)cc1)N(c1ccc(C(C)(O)C3CCN(CC(F)(F)F)CC3)cc1)C(=O)C2` (stereo partly drawn) [Example 77, (S)-1-(4-Chloro-phenyl)-2-(4-{1-hydroxy-1-[1-(2,2,2-trifluoro-ethyl)-piperidin-4-yl]-ethyl}-phenyl)-7-isopropoxy-6-methoxy-1,4-dihydro-2H-isoquinolin-3-one], for which the figures for the IC50 in assay [1] and in assay [2] were 0.011 µM and 13.5 µM, respectively.

In the case of `COc1cc2c(cc1OC(C)C)[C@H](c1ccc(Cl)cc1)N(c1ccc(C(C)(O)C3CCN(C(C)C)CC3)cc1)C(=O)C2` (stereo partly drawn) [Example 78, (S)-1-(4-Chloro-phenyl)-2-{4-[1-hydroxy-1-(1-isopropyl-piperidin-4-yl)-ethyl]-phenyl}-7-isopropoxy-6-methoxy-1,4-dihydro-2H-isoquinolin-3-one], the IC50 was 0.0043 µM in assay [1] and 3.18 µM in assay [2].

For the compound `CNC(=O)N1CCC(C(C)(O)c2ccc(N3C(=O)Cc4cc(OC)c(OC(C)C)cc4[C@@H]3c3ccc(Cl)cc3)cc2)CC1` (stereo partly drawn) [Example 79, 4-(1-{4-[(S)-1-(4-Chloro-phenyl)-7-isopropoxy-6-methoxy-3-oxo-3,4-dihydro-1H-isoquinolin-2-yl]-phenyl}-1-hydroxy-ethyl)-piperidine-1-carboxylic acid methylamide], the figures for the half-inhibitory concentration (IC50) in assay [1] and in assay [2] were 0.0052 µM and 5.63 µM, respectively.

As for `COc1cc2c(cc1OC(C)C)[C@H](c1ccc(Cl)cc1)N(c1ccc(C(C)(O)C3CCN(C(=O)C4CC4)CC3)cc1)C(=O)C2` (stereo partly drawn) [Example 80], the IC50 is 0.0052 µM in assay [1] and 5.11 µM in assay [2].

As to `COc1cc2c(cc1OC(C)C)[C@H](c1ccc(Cl)cc1)N(c1ccc(C(C)(O)C3CCN(S(C)(=O)=O)CC3)cc1)C(=O)C2` (stereo partly drawn) [Example 81, (S)-1-(4-Chloro-phenyl)-2-{4-[1-hydroxy-1-(1-methanesulfonyl-piperidin-4-yl)-ethyl]-phenyl}-7-isopropoxy-6-methoxy-1,4-dihydro-2H-isoquinolin-3-one], the IC50 worked out at 0.0057 µM in assay [1] and 5.11 µM in assay [2].

As to `COc1cc2c(cc1OC(C)C)[C@H](c1ccc(Cl)cc1)N(c1ccc(C(C)(O)C3CCN(C(=O)N(C)C)CC3)cc1)C(=O)C2` (stereo partly drawn) [Example 82, 4-(1-{4-[(S)-1-(4-Chloro-phenyl)-7-isopropoxy-6-methoxy-3-oxo-3,4-dihydro-1H-isoquinolin-2-yl]-phenyl}-1-hydroxy-ethyl)-piperidine-1-carboxylic acid dimethylamide], the IC50 in assay [1] is 0.0032 µM; in assay [2], 2.9 µM.

As for `COc1cc2c(cc1OC(C)C)[C@H](c1ccc(Cl)cc1)N(c1ccc(C(C)(O)C3CCN(C(=O)OC(C)C)CC3)cc1)C(=O)C2` (stereo partly drawn) [Example 83, 4-(1-{4-[(S)-1-(4-Chloro-phenyl)-7-isopropoxy-6-methoxy-3-oxo-3,4-dihydro-1H-isoquinolin-2-yl]-phenyl}-1-hydroxy-ethyl)-piperidine-1-carboxylic acid isopropyl ester], the IC50 in assay [1] was 0.0069 µM; in assay [2] it was 7.54 µM.

`COc1cc2c(cc1OC(C)C)[C@H](c1ccc(Cl)cc1)N(c1ccc(C(C)(O)C3CCN(C(=O)NC(C)C)CC3)cc1)C(=O)C2` (stereo partly drawn) [Example 84, 4-(1-{4-[(S)-1-(4-Chloro-phenyl)-7-isopropoxy-6-methoxy-3-oxo-3,4-dihydro-1H-isoquinolin-2-yl]-phenyl}-1-hydroxy-ethyl)-piperidine-1-carboxylic acid isopropylamide]: the IC50 in assay [1] was found to be 0.0056 µM; in assay [2] it was 5.91 µM.

Turning to `CCN1CCC(C(C)(O)c2ccc(N3C(=O)Cc4cc(OC)c(OC(C)C)cc4[C@@H]3c3ccc(Cl)cc3)cc2)CC1` (stereo partly drawn) [Example 85, (S)-1-(4-Chloro-phenyl)-2-{4-[1-(1-ethyl-piperidin-4-yl)-1-hydroxy-ethyl]-phenyl}-7-isopropoxy-6-methoxy-1,4-dihydro-2H-isoquinolin-3-one], the IC50 was 0.0048 µM in assay [1] and 4.94 µM in assay [2].

`COc1cc2c(cc1OC(C)C)[C@H](c1ccc(Cl)cc1)N(c1ccc(C(C)(O)C3CCN(CCC(F)(F)F)CC3)cc1)C(=O)C2` (stereo partly drawn) [Example 86]: the values for the IC50 in assay [1] and in assay [2] were 0.0058 µM and 6.45 µM, respectively.

In the case of `COc1cc2c(cc1OC(C)C)[C@H](c1ccc(Cl)cc1)N(c1ccc(C(C)(O)C3CCN(C(=O)C(F)F)CC3)cc1)C(=O)C2` (stereo partly drawn) [Example 87, (S)-1-(4-Chloro-phenyl)-2-(4-{1-[1-(2,2-difluoro-acetyl)-piperidin-4-yl]-1-hydroxy-ethyl}-phenyl)-7-isopropoxy-6-methoxy-1,4-dihydro-2H-isoquinolin-3-one], the IC50 in assay [1] stood at 0.0287 µM; in assay [2], 23.9 µM.

As to `COc1cc2c(cc1OC(C)C)[C@H](c1ccc(Cl)cc1)N(c1ccc(C(C)(O)C3CCN(C(=O)CC#N)CC3)cc1)C(=O)C2` (stereo partly drawn) [Example 88, 3-[4-(1-{4-[(S)-1-(4-Chloro-phenyl)-7-isopropoxy-6-methoxy-3-oxo-3,4-dihydro-1H-isoquinolin-2-yl]-phenyl}-1-hydroxy-ethyl)-piperidin-1-yl]-3-oxo-propionitrile], the figures for the IC50 in assay [1] and in assay [2] were 0.0114 µM and 10.8 µM, respectively.

Consider `COc1cc2c(cc1OC(C)C)[C@H](c1ccc(Cl)cc1)N(c1ccc(C(C)(O)C3CCN(C=O)CC3)cc1)C(=O)C2` (stereo partly drawn) [Example 89, 4-(1-{4-[(S)-1-(4-Chloro-phenyl)-7-isopropoxy-6-methoxy-3-oxo-3,4-dihydro-1H-isoquinolin-2-yl]-phenyl}-1-hydroxy-ethyl)-piperidine-1-carbaldehyde], for which the IC50 was 0.0028 µM in assay [1] and 2.39 µM in assay [2].

`COc1cc2c(cc1OC(C)C)[C@H](c1ccc(Cl)cc1)N(c1ccc(C(C)(O)C3CN(C4CCOCC4)C3)cc1)C(=O)C2` (stereo partly drawn) [Example 98, (S)-1-(4-Chloro-phenyl)-2-(4-{1-hydroxy-1-[1-(tetrahydro-pyran-4-yl)-azetidin-3-yl]-ethyl}-phenyl)-7-isopropoxy-6-methoxy-1,4-dihydro-2H-isoquinolin-3-one]: the IC50 in assay [1] came out at 0.0342 µM; in assay [2] it was 34.7 µM.

As to `COc1cc2c(cc1OC(C)C)[C@H](c1ccc(Cl)cc1)N(c1ccc(C(C)(O)C3CN(C4CCCCC4)C3)cc1)C(=O)C2` (stereo partly drawn) [Example 99, (S)-1-(4-Chloro-phenyl)-2-{4-[1-(1-cyclohexyl-azetidin-3-yl)-1-hydroxy-ethyl]-phenyl}-7-isopropoxy-6-methoxy-1,4-dihydro-2H-isoquinolin-3-one], the IC50 in assay [1] turned out to be 0.0279 µM; in assay [2], 24.6 µM.

On to `CCN1CCC(N2CC(C(C)(O)c3ccc(N4C(=O)Cc5cc(OC)c(OC(C)C)cc5[C@@H]4c4ccc(Cl)cc4)cc3)C2)CC1` (stereo partly drawn) [Example 100, (S)-1-(4-Chloro-phenyl)-2-(4-{1-[1-(1-ethyl-piperidin-4-yl)-azetidin-3-yl]-1-hydroxy-ethyl}-phenyl)-7-isopropoxy-6-methoxy-1,4-dihydro-2H-isoquinolin-3-one], for which the figures for the IC50 in assay [1] and in assay [2] were 0.0082 µM and 9.66 µM, respectively.

Take `COc1cc2c(cc1OC(C)C)[C@H](c1ccc(Cl)cc1)N(c1ccc(C(C)(O)C3CN(C4CCN(C)CC4)C3)cc1)C(=O)C2` (stereo partly drawn) [Example 101, (S)-1-(4-Chloro-phenyl)-2-(4-{1-hydroxy-1-[1-(1-methyl-piperidin-4-yl)-azetidin-3-yl]-ethyl}-phenyl)-7-isopropoxy-6-methoxy-1,4-dihydro-2H-isoquinolin-3-one]: the IC50 in assay [1] came out at 0.0085 µM; in assay [2], 9.21 µM.

For `COc1cc2c(cc1OC(C)C)[C@H](c1ccc(Cl)cc1)N(c1ccc(C(C)(O)C3CN(C(=O)CO)C3)cc1)C(=O)C2` (stereo partly drawn) [Example 102, (S)-1-(4-Chloro-phenyl)-2-(4-{1-hydroxy-1-[1-(2-hydroxy-acetyl)-azetidin-3-yl]-ethyl}-phenyl)-7-isopropoxy-6-methoxy-1,4-dihydro-2H-isoquinolin-3-one], the IC50 in assay [1] was 0.0078 µM; in assay [2], 7.38 µM.

Turning to `COc1cc2c(cc1OC(C)C)[C@H](c1ccc(Cl)cc1)N(c1ccc(C(C)(O)C3CC4CCC(C3)N4C(C)=O)cc1)C(=O)C2` (stereo partly drawn) [Example 104, (S)-2-{4-[1-(8-Acetyl-8-aza-bicyclo[3.2.1]oct-3-yl)-1-hydroxy-ethyl]-phenyl}-1-(4-chloro-phenyl)-7-isopropoxy-6-methoxy-1,4-dihydro-2H-isoquinolin-3-one], the IC50 is 0.0132 µM in assay [1] and 14.2 µM in assay [2].

As to `COc1cc2c(cc1OC(C)C)[C@H](c1ccc(Cl)cc1)N(c1ccc(C(C)(O)C3CC4CCC(C3)N4C(C)C)cc1)C(=O)C2` (stereo partly drawn) [Example 110, (S)-1-(4-Chloro-phenyl)-2-{4-[1-hydroxy-1-(8-isopropyl-8-aza-bicyclo[3.2.1]oct-3-yl)-ethyl]-phenyl}-7-isopropoxy-6-methoxy-1,4-dihydro-2H-isoquinolin-3-one], the IC50 in assay [1] turned out to be 0.0049 µM; in assay [2], 4.23 µM.
